Source: ChEMBL document CHEMBL3600346, “Synthesis and carbonic anhydrase inhibitory properties of novel uracil derivatives” (Bioorg Med Chem Lett, 2015)
The source made the active and inactive calls. No cut-off for these calls is given here.

Tests used:
Carbonic anhydrase 1 [1] = target: T1, Carbonic anhydrase 1 (Homo sapiens, UniProt P00915); assay: Competitive inhibition of human erythrocytes CA1 using 4-nitrophenylacetate as substrate by Lineweaver-Burk plot analysis
Target sequence in this assay (P00915 2-261 limits assumed): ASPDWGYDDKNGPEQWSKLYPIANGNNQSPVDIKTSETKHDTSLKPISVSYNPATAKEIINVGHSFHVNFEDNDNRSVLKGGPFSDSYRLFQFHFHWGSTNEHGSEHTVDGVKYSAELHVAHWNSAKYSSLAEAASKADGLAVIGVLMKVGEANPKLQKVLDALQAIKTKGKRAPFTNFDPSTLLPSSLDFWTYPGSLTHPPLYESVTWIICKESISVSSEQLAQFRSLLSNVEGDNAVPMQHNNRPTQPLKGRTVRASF

Carbonic anhydrase 2 = Carbonic anhydrase 2 (Homo sapiens, UniProt P00918); assay: Inhibition of human erythrocytes CA2 using 4-nitrophenylacetate as substrate by esterase assay
Carbonic anhydrase 1 [2] = target: T1, Carbonic anhydrase 1; assay: Inhibition of human erythrocytes CA1 using 4-nitrophenylacetate as substrate by esterase assay
Target sequence in this assay (P00915 whole entry): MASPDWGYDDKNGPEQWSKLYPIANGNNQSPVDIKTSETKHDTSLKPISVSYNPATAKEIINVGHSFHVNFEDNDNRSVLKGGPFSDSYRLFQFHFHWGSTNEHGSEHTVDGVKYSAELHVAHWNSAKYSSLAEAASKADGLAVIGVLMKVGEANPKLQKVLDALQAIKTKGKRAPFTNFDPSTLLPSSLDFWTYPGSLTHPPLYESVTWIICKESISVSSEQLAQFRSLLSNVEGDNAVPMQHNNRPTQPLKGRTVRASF

SMILES | inhibition (Carbonic anhydrase 1 [1]) | Ki (Carbonic anhydrase 2; read-out: Ki) [µM] | Ki (Carbonic anhydrase 1 [2]) [µM] | inhibition mode (Carbonic anhydrase 1 [1]) | Ki (Carbonic anhydrase 2)
Oc1ccccc1O | Active |  |  |  | 
Cc1ccc(S(=O)(=O)n2cc(Br)c(=O)[nH]c2=O)cc1 |  | 28.9 | 10.8 | Active | 
Oc1ccccc1 | Active |  |  |  | 
Cc1cc(O)nc(O)n1 | Active |  | 57.8 |  | Not Active
CS(=O)(=O)n1cc(Br)c(=O)[nH]c1=O |  | 645 | 428 | Active | 
Oc1cccc(O)c1 |  |  |  | Active | 
O=c1[nH]cc(CO)c(=O)[nH]1 |  |  | 49.5 |  | Not Active
Cn1ccc(=O)n(C)c1=O |  | 166 | 316 | Active | 
CC(=O)n1cc(Br)c(=O)[nH]c1=O |  | 778 | 464 | Active | 
